Measured values published in patent US10759796B2, “CXCR4 inhibitors and uses thereof” (X4 Pharmaceuticals, Inc., priority 2016, dated 2020).

Tests used:
[1] = target: CXCR-4 transfected U87 cell line (U87.CXCR4) (Homo sapiens (Human), UniProt P61073); assay: Intracellular CXCL-12-induced calcium mobilization assay (FLIPR); format: cell-based; details: U87.CXCR4 cells, CXCL-12 25-50 ng/mL; read-out: IC50 CXCL-12 Ca2+ flux U87.CXCR4+
Summary of the method: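 U87.CXCR4 cells were seeded at 20,000 per well, cultured 12 hours, then loaded with 4 μM Fluo-2 AM for 45 min at 37° C. in HBSS with 20 mM HEPES and 0.2% BSA, pH 7.4. Calcium flux triggered by CXCL-12 (25-50 ng/mL) was tracked over time by FLIPR fluorescence at 37° C.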

[2] = target: Jurkat cells expressing CXCR4 (Homo sapiens (Human), UniProt P61073); assay: Chemokine (CXCL12-AF647) binding inhibition assay; details: CXCL12-AF647 25 ng/mL, read-out: IC50 CXCL-12 binding Jurkat
Chain of Jurkat cells expressing CXCR4 (P61073 whole entry): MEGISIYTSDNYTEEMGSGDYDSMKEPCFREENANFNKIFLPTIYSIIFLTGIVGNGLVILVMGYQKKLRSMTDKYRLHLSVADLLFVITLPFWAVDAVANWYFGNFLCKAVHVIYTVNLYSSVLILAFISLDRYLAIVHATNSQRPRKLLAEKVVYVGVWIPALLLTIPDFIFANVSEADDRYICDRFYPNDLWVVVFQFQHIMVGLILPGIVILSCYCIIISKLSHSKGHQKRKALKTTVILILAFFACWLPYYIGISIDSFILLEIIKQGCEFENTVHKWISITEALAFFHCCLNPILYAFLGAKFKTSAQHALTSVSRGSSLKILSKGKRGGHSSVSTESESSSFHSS
Summary of the method: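 Cells in HBSS, 20 mM HEPES, 0.2% BSA, pH 7.4, preincubated 15 min at room temperature with compound, then 25 ng/mL CXCL12-AF647 for 30 min. After washing and paraformaldehyde fixation, bound ligand read by flow cytometry; percent inhibition calculated from MFI relative to unlabeled and ligand-only controls.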

[3] = in vitro; details: human, Caco-2, pH 7.4
Summary of the method: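 Compounds at 10 μM in HBSS pH 7.4 (0.1–0.3% DMSO) were dosed on Caco-2 monolayers, apical-to-basolateral and basolateral-to-apical, for 90 min at 37 °C, in duplicate. Monolayer integrity was checked by TEER and lucifer yellow flux, read by fluorescence at 485/535 nm. Compound was quantified by LC-MS/MS and Papp calculated.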

Chain of CXCR-4 transfected U87 cell line (U87.CXCR4) (P61073 whole entry): as above

IC50 [1] [nM] | IC50 [2] [nM] | Papp A→B at 90 min, 10 μM [3] [×10⁻⁶ cm/s] | Papp B→A at 90 min, 10 μM [3] [×10⁻⁶ cm/s] | efflux ratio at 90 min, 10 μM [3] | SMILES
0.01 to 100 | 0.01 to 100 | 0.1 to 10 | 10 to 30 | 10 to 30 | Cc1cccnc1[C@@H]1CCC[C@H](c2nc3cccc(N4CCN(C)CC4)n3c2C)N1C [Compound I-86]
100 to 1000 | 0.01 to 100 | 0.1 to 10 | 10 to 30 | 0.1 to 10 | C/C=C/c1c([C@H]2CCC[C@@H](c3ncccc3C)N2C)nc2cccc(N3CCN(C)CC3)n12 [Compound I-141]
0.01 to 100 | 0.01 to 100 | 0.1 to 10 | 10 to 30 | 0.1 to 10 | Cc1cccnc1[C@@H]1CCC[C@H](c2nc3ccccn3c2N2CCN(C)CC2)N1C [Compound I-152]
0.01 to 100 | 0.01 to 100 | 0.1 to 10 | 10 to 30 | 10 to 30 | CN(C)C1CCN(c2cccc3nc([C@H]4CCC[C@@H](c5ncccc5Cl)N4C)c(CO)n23)CC1 [Compound I-136]
100 to 1000 | 0.01 to 100 | 10 to 30 | 10 to 30 | 0.1 to 10 | CN1CCN(c2cccc3nc([C@H]4CCC[C@@H](c5ncccc5OC(F)(F)F)N4C)cn23)CC1 [Compound I-81]
0.01 to 100 | 0.01 to 100 | 0.1 to 10 | 10 to 30 | 0.1 to 10 | Cc1cccnc1[C@@H]1CCC[C@H](c2nc3cccc(N4CCN(C)CC4)n3c2COC2CC2)N1C [Compound I-85]
0.01 to 100 | 0.01 to 100 | 10 to 30 | 10 to 30 | 0.1 to 10 | CN1[C@@H](c2cn3c(N4CCNC5(CC5)C4)cccc3n2)CCC[C@H]1c1ncccc1Cl [Compound I-159]
≥ 1000 | 100 to 1000 | 0.1 to 10 | > 30 | 10 to 30 | Cc1cccnc1[C@@H]1CCC[C@H](c2cn3c(N4CCNC5(CC5)C4)cccc3n2)N1 [Compound I-190]
100 to 1000 | 0.01 to 100 | 0.1 to 10 | > 30 | 10 to 30 | COc1cccnc1[C@@H]1CCC[C@H](c2cn3c(N4CCN(C)CC4)cccc3n2)N1 [Compound I-191]
0.01 to 100 | 0.01 to 100 | 0.1 to 10 | 10 to 30 | 0.1 to 10 | CN1CCN(c2cccc3nc([C@H]4CCC[C@@H](c5ncccc5C5CC5)N4)cn23)CC1 [Compound I-179]
0.01 to 100 | 0.01 to 100 | 0.1 to 10 | 10 to 30 | 0.1 to 10 | CN1CCN(c2cccc3nc([C@H]4CCC[C@@H](c5ncccc5Cl)N4C)cn23)CC1 [Compound I-82]
0.01 to 100 | 0.01 to 100 | 0.1 to 10 | 0.1 to 10 | 0.1 to 10 | Cc1cccnc1[C@@H]1CCC[C@H](c2nc3cccc(N4CCN(C(C)C)CC4)n3c2Cl)N1C [Compound I-92]
≥ 1000 | 0.01 to 100 | 0.1 to 10 | 10 to 30 | 0.1 to 10 | CC(C)N1CCN(c2cccc3nc([C@H]4CCC[C@@H](c5ncccc5Cl)N4C)cn23)CC1 [Compound I-150]
100 to 1000 | 0.01 to 100 | 0.1 to 10 | 10 to 30 | > 30 | CO[C@H](c1c([C@H]2CCC[C@@H](c3ncccc3C)N2C)nc2ccccn12)C1CCN(C)CC1 [Compound I-104]
≥ 1000 | 100 to 1000 | 0.1 to 10 | 0.1 to 10 | 0.1 to 10 | Clc1cccnc1[C@@H]1CCC[C@H](c2nc3cccc(N4CCNC5(CC5)C4)n3c2Cl)N1 [Compound I-167]

Further lines, the molecule ahead of its results:

SMILES | IC50 [1] [nM] | IC50 [2] [nM] | Papp A→B at 90 min, 10 μM [3] [×10⁻⁶ cm/s] | Papp B→A at 90 min, 10 μM [3] [×10⁻⁶ cm/s] | efflux ratio at 90 min, 10 μM [3]
CN1CC2CCC(C1)N2c1cccc2nc([C@H]3CCC[C@@H](c4ncccc4Cl)N3C)c(CO)n12 [Compound I-134] | 0.01 to 100 | 0.01 to 100 | 10 to 30 | 10 to 30 | 0.1 to 10
Cc1cccnc1[C@@H]1CCC[C@H](c2cn3ccccc3n2)N1Cc1ccccc1-n1cccn1 [Compound I-16] | 0.01 to 100 | 0.01 to 100 | 10 to 30 | 10 to 30 | 0.1 to 10
Cc1cccnc1[C@@H]1CCC[C@H](c2cn3c(N4CC5CCC(C4)N5C)cccc3n2)N1C [Compound I-68] | 0.01 to 100 | 0.01 to 100 | 0.1 to 10 | 10 to 30 | 10 to 30
Cc1cccnc1[C@@H]1CCC[C@H](c2nc3cccc(N4CCN(C)CC4)n3c2CO)N1C [Compound I-11] | 0.01 to 100 | 0.01 to 100 | 0.1 to 10 | 10 to 30 | 0.1 to 10
Cc1cccnc1[C@@H]1CCC[C@H](c2cn3c(N4CCC(N(C)C)CC4)cccc3n2)N1C [Compound I-78] | 0.01 to 100 | 0.01 to 100 | 0.1 to 10 | 10 to 30 | > 30
CN1CC2CCC(C1)N2c1cccc2nc([C@H]3CCC[C@@H](c4ncccc4Cl)N3)cn12 [Compound I-182] | ≥ 1000 | 0.01 to 100 | 10 to 30 | 10 to 30 | 0.1 to 10
Cc1cccnc1[C@@H]1CCC[C@H](c2cn3c(N4C5CCC4CN(C)C5)cccc3n2)N1 [Compound I-186] | 0.01 to 100 | 0.01 to 100 | 0.1 to 10 | 10 to 30 | 0.1 to 10
Cc1cccnc1[C@@H]1CCC[C@H](c2nc3cccc(N4CCN(C)CC4)n3c2Br)N1C(C)C [Compound I-47] | 0.01 to 100 | 0.01 to 100 | 0.1 to 10 | 0.1 to 10 | 0.1 to 10
Cc1cccnc1[C@@H]1CCC[C@H](c2cn3c(N4C5CCC4CN(C)C5)cccc3n2)N1C [Compound I-69] | 0.01 to 100 | 0.01 to 100 | 0.1 to 10 | 10 to 30 | 0.1 to 10
Cc1cccnc1[C@@H]1CCC[C@H](c2nc3cccc(N4CCN(C(C)C)CC4)n3c2CO)N1C [Compound I-50] | 0.01 to 100 | 0.01 to 100 | 0.1 to 10 | 10 to 30 | 10 to 30
Cc1cccnc1[C@@H]1CCC[C@H](c2nc3cccc(N4C5CCC4CN(C)C5)n3c2Cl)N1C [Compound I-138] | 0.01 to 100 | 0.01 to 100 | 10 to 30 | 10 to 30 | 0.1 to 10
CCOCc1c([C@H]2CCC[C@@H](c3ncccc3C)N2C)nc2cccc(N3CCN(C)CC3)n12 [Compound I-21] | 0.01 to 100 | 0.01 to 100 | 0.1 to 10 | 10 to 30 | 0.1 to 10
